Data taken from patent publication US20050239854A1, “Body weight gain inhibitors” (priority 1999, published 2005).

Assay: Body weight gain-reducing action in KKAy mice
Settings: female KKAy mice; for % control (blood glucose level): in admixture with the feed for 4 days, blood glucose relative to own control group = 100

Compound | effect on body weight (in words) (4 days, dose that reduced the blood glucose level to 50-58%) | % control (blood glucose level) [%]
CN(CCOc1ccc(CC2SC(=O)NC2=O)cc1)c1ccccn1 (stereo not drawn) [rosiglitazone] | significantly increased the body weight | 58
Cc1oc(-c2ccccc2)nc1COc1ccc(CO/N=C(\CCC(=O)O)c2ccccc2)cc1 [compound of Production Example 3, E-4-[4-(5-methyl-2-phenyl-4-oxazolylmethoxy)benzyloxyimino]-4-phenylbutyric acid] | – | 50
